In US11000033B2, “Ketone or oxime compound, and herbicide” (NISSAN CHEMICAL CORPORATION, priority 2014, dated 2021):

Columns and labels:
Format in all cases: in vivo
Lolium multiflorum Lam. = test: Test Example 5: herbicidal effect by foliage application, plastic box (symbol K); conditions: 320 g/ha, 3 weeks after application
In short: (§1)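 After sowing into sterilized diluvial soil and growing two weeks under glass at 25° C. to 30° C., seedlings receive a uniform foliar spray of diluted emulsion. Damage is judged visually three weeks on.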

Alopecurus myosuroides [1] = test: Test Example 5: herbicidal effect by foliage application, plastic box (symbol J); conditions: 320 g/ha, 3 weeks after application
In short: as §1

Apera spica-venti = test: Test Example 5: herbicidal effect by foliage application, plastic box (symbol L); conditions: 320 g/ha, 3 weeks after application
In short: as §1

corn [2] = test: Test Example 5: effect on crop by foliage application, plastic box (symbol c); conditions: 320 g/ha, 3 weeks after application
In short: (§2)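 Box culture: sterile diluvial soil, seeds spot-sown, ~1.5 cm cover, raised under glass at 25–30° C.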

soybean = test: Test Example 5: effect on crop by foliage application, plastic box (symbol d); conditions: 320 g/ha, 3 weeks after application
In short: as §2

Galium spurium = test: Test Example 4: herbicidal effect by soil treatment (symbol Q); conditions: application herbicide amount 320 g/ha
In short: (§3)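 Seeds were sown in sterilized diluvial soil, covered with about 1.5 cm of soil, and the soil surface was sprayed with a water-diluted emulsion of the compound at a predetermined rate. Plants grew in a greenhouse at 25° C. to 30° C.; effects were scored visually 3 weeks after application.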

Stellaria media = test: Test Example 4: herbicidal effect by soil treatment (symbol P); conditions: application herbicide amount 320 g/ha
In short: as §3

Chenopodium album [3] = test: Test Example 4: herbicidal effect by soil treatment (symbol O); conditions: application herbicide amount 320 g/ha
In short: as §3

Alopecurus myosuroides [4] = test: Test Example 4: herbicidal effect by soil treatment (symbol J); conditions: application herbicide amount 320 g/ha
In short: as §3

Veronica persica = test: Test Example 5: herbicidal effect by foliage application, plastic box (symbol R); conditions: 320 g/ha, 3 weeks after application
In short: as §1

[5] = test system: Echinochloa crus-galli var. crus-galli; test: Test Example 5: herbicidal effect by foliage application, plastic box (symbol H); conditions: 320 g/ha, 3 weeks after application
In short: as §1

transplanted rice plant = test: Test Example 1: effect on crop, application before weed generation in submerged conditions (symbol a); conditions: application herbicide amount 320 g/ha
In short: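 Alluvial soil pots flooded to 4 cm water, sown with Echinochloa oryzacola, Scirpus juncoides and Monochoria vaginalis, then transplanted with 2.5 leaf stage rice seedlings; pre-emergence application. Greenhouse 25° C. to 30° C.; scored 0–5 by herbicidal ratio 3 weeks after application.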

Amaranthus retroflexus = test: Test Example 5: herbicidal effect by foliage application, plastic box (symbol N); conditions: 320 g/ha, 3 weeks after application
In short: as §1

Chenopodium album [6] = test: Test Example 5: herbicidal effect by foliage application, plastic box (symbol O); conditions: 320 g/ha, 3 weeks after application
In short: as §1

corn [7] = test: Test Example 4: effect on crop by soil treatment (symbol c); conditions: application herbicide amount 320 g/ha
In short: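 Steps: fill box with sterilized diluvial soil; sow seed spot-like; cover with ~1.5 cm soil; grow in greenhouse (25° C. to 30° C.).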

[8] = test system: Echinochloa crus-galli var. crus-galli; test: Test Example 3: herbicidal effect by foliage application, Wagner pot (symbol H); conditions: application herbicide amount 320 g/ha
In short: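 Post-emergence, paddy-type test: seedlings 14 d old in shallow-flooded (0.1–0.5 cm) alluvial soil, 25–30 °C greenhouse. Emulsion diluted to target rate, sprayed on leaves. Read-out: visual effect on each species at 3 weeks, per set criteria.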

Abutilon theophrasti = test: Test Example 4: herbicidal effect by soil treatment (symbol M); conditions: application herbicide amount 320 g/ha
In short: as §3

Structure (SMILES)	K: Lolium multiflorum Lam., herbicidal effect (criteria of Test Example 1) (Lolium multiflorum Lam.)	J: Alopecurus myosuroides, herbicidal effect (criteria of Test Example 1) (Alopecurus myosuroides [1])	L: Apera spica-venti, herbicidal effect (criteria of Test Example 1) (Apera spica-venti)	c: corn, effect on crop (criteria of Test Example 1) (corn [2])	Q: Galium spurium, herbicidal effect grade (Galium spurium)	P: Stellaria media, herbicidal effect grade (Stellaria media)	O: Chenopodium album, herbicidal effect grade (Chenopodium album [3])	J: Alopecurus myosuroides, herbicidal effect grade (Alopecurus myosuroides [4])	R: Veronica persica, herbicidal effect (criteria of Test Example 1) (Veronica persica)	H: Echinochloa crus-galli var. crus-galli, herbicidal effect (criteria of Test Example 1) [5]	Effect grade on crop, a: transplanted rice plant (transplanted rice plant)	N: Amaranthus retroflexus, herbicidal effect (criteria of Test Example 1) (Amaranthus retroflexus)	O: Chenopodium album, herbicidal effect (criteria of Test Example 1) (Chenopodium album [6])	c: corn, effect on crop grade (corn [7])	herbicidal effect on H (Echinochloa crus-galli var. crus-galli), grade 0-5 [8]	M: Abutilon theophrasti, herbicidal effect grade (Abutilon theophrasti)	further results
CON=C(C)CC1CC(OC(=O)N2CCOCC2)=C(c2c(C)cc(-c3ccc(F)cc3)cc2C)C1=O (mixture of isomers) [6-059]	5 (Herbicidal ratio of 90% or more (almost completely withered))	5 (Herbicidal ratio of 90% or more (almost completely withered))	5 (Herbicidal ratio of 90% or more (almost completely withered))	5 (Herbicidal ratio of 90% or more (almost completely withered))	3 (Herbicidal ratio of 40% or higher and lower than 70%)	0 (Herbicidal ratio of 5% or lower (almost no effect))	0 (Herbicidal ratio of 5% or lower (almost no effect))	5 (Herbicidal ratio of 90% or more (almost completely withered))	5 (Herbicidal ratio of 90% or more (almost completely withered))	5 (Herbicidal ratio of 90% or more (almost completely withered))	5 (Herbicidal ratio of 90% or more (almost completely withered))	5 (Herbicidal ratio of 90% or more (almost completely withered))	5 (Herbicidal ratio of 90% or more (almost completely withered))	0 (Herbicidal ratio of 5% or lower (almost no effect))	5 (Herbicidal ratio of 90% or more (almost completely withered))	0 (Herbicidal ratio of 5% or lower (almost no effect))	d: soybean, effect on crop (criteria of Test Example 1) (soybean): 0 (Herbicidal ratio of 5% or lower (almost no effect))
CON=C(C)CC1CC(OC(=O)COc2ccccc2)=C(c2c(C)cc(-c3ccc(Cl)cc3)cc2OC)C1=O (stereo not shown) [6-079]	5 (Herbicidal ratio of 90% or more (almost completely withered))	5 (Herbicidal ratio of 90% or more (almost completely withered))	5 (Herbicidal ratio of 90% or more (almost completely withered))	5 (Herbicidal ratio of 90% or more (almost completely withered))	0 (Herbicidal ratio of 5% or lower (almost no effect))	0 (Herbicidal ratio of 5% or lower (almost no effect))	0 (Herbicidal ratio of 5% or lower (almost no effect))	3 (Herbicidal ratio of 40% or higher and lower than 70%)	3 (Herbicidal ratio of 40% or higher and lower than 70%)	5 (Herbicidal ratio of 90% or more (almost completely withered))	5 (Herbicidal ratio of 90% or more (almost completely withered))	0 (Herbicidal ratio of 5% or lower (almost no effect))	3 (Herbicidal ratio of 40% or higher and lower than 70%)	0 (Herbicidal ratio of 5% or lower (almost no effect))	5 (Herbicidal ratio of 90% or more (almost completely withered))	1 (Herbicidal ratio of 5% or higher and lower than 20%)	–
COc1cc(Br)cc(F)c1C1=C(O)CC(CC(C)=O)C1=O (stereo not shown) [7-029]	5 (Herbicidal ratio of 90% or more (almost completely withered))	3 (Herbicidal ratio of 40% or higher and lower than 70%)	3 (Herbicidal ratio of 40% or higher and lower than 70%)	–	–	–	–	–	0 (Herbicidal ratio of 5% or lower (almost no effect))	–	0 (Herbicidal ratio of 5% or lower (almost no effect))	–	0 (Herbicidal ratio of 5% or lower (almost no effect))	–	–	–	Herbicidal effect grade, Q: Galium spurium (Galium spurium): 0 (Herbicidal ratio of 5% or lower (almost no effect)); Herbicidal effect grade, P: Stellaria media (Stellaria media): 0 (Herbicidal ratio of 5% or lower (almost no effect)); Herbicidal effect grade, O: Chenopodium album (Chenopodium album [3]): 0 (Herbicidal ratio of 5% or lower (almost no effect)); Herbicidal effect grade, J: Alopecurus myosuroides (Alopecurus myosuroides [4]): 1 (Herbicidal ratio of 5% or higher and lower than 20%); Effect on crop grade, c: corn (corn [7]): 0 (Herbicidal ratio of 5% or lower (almost no effect)); H (Echinochloa crus-galli var. crus-galli) herbicidal effect grade ([8]; Table 24): 3 (Herbicidal ratio of 40% or higher and lower than 70%); Herbicidal effect grade, M: Abutilon theophrasti (Abutilon theophrasti): 0 (Herbicidal ratio of 5% or lower (almost no effect))
